Measured values published in ChEMBL document CHEMBL6078678, “Unveiling the Antimycobacterial Potential of Novel 4-Alkoxyquinolines: Insights into Selectivity, Mechanism of Action, and In Vivo Exposure” (J Med Chem, 2024).

Columns and labels:
Assay in all cases: microbe, parasite or virus in culture
[1] = system: Mycobacterium tuberculosis
[2] = system: Mycobacterium tuberculosis; remark: listed apart in the source
[3] = system: Mycobacterium tuberculosis; remark: listed apart in the source

Question: How did the MIC [1] turn out when `Cc1cc(OCCCNc2ccc(Br)cc2)c2cc(Cl)ccc2n1` was run?
Answer: Its MIC is under 0.06 µM.

Question: What about the MIC [2] of the same molecule?
Answer: The MIC was under 0.06 µM.

Question: And the MIC [3]?
Answer: The MIC was under 0.06 µM.

Question: With `CCc1ccc(NCCCOc2cc(C)nc3ccc(Cl)cc23)cc1` as the molecule, how does the MIC [1] read?
Answer: Its MIC is under 0.06 µM.

Question: And the MIC [2]?
Answer: The MIC was under 0.06 µM.

Question: What about the MIC [3] of the same molecule?
Answer: The MIC was under 0.06 µM.

Question: Which results are given for `COc1ccc2nc(C)cc(OCCCNc3ccc(I)cc3)c2c1`?
Answer: MIC [1]: < 0.05 µM; MIC [2]: < 0.05 µM; MIC [3]: < 0.05 µM

Question: For `CCc1ccc(NCCCOc2cc(C)nc3ccc(Br)cc23)cc1`, which MIC [1] is on record?
Answer: The MIC was under 0.05 µM.

Question: And the MIC [2]?
Answer: Its MIC is under 0.05 µM.

Question: And the MIC [3]?
Answer: Its MIC is under 0.05 µM.

Question: `CCc1ccc(NCCCOc2cc(CC)nc3ccc(Br)cc23)cc1` was tested. Which MIC [1] did it give?
Answer: The MIC was under 0.05 µM.

Question: What about the MIC [2] of the same molecule?
Answer: Its MIC is under 0.05 µM.

Question: What about the MIC [3] of the same molecule?
Answer: Its MIC is under 0.05 µM.

Question: With `COc1ccc2nc(C)cc(OCCCNc3ccc(Br)cc3)c2c1` as the molecule, how does the MIC [1] read?
Answer: Its MIC is under 0.05 µM.

Question: What about the MIC [2] of the same molecule?
Answer: Its MIC is under 0.05 µM.

Question: And the MIC [3]?
Answer: The MIC was under 0.05 µM.

Question: With `Cc1cc(OCCCNc2ccc(Cl)cc2)c2cc(Br)ccc2n1` as the molecule, how does the MIC [1] read?
Answer: Its MIC is under 0.05 µM.

Question: What about the MIC [2] of the same molecule?
Answer: The MIC was under 0.05 µM.

Question: And the MIC [3]?
Answer: Its MIC is under 0.05 µM.
